“And” between values parts separate entries of the source, which are not always exact repeats. Identical values can stand only once.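 Exposure lasted 48 hours, with cells grown in 96-well plates and compounds tested at five concentrations. Abbreviation: GI50, concentration required for 50% inhibition of growth. TGI marks complete inhibition of growth.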 A value given as a limit tells only on which side of the number the result lay.

9 compounds from PubChem BioAssay (NCI) can be followed below.

Some test systems named below: CCRF-CEM leukemia; HCT-116 colon; HL-60(TB) leukemia; HOP-62 NSCLC; HT29 colon; K-562 leukemia; SNB-75 CNS; SR leukemia; SW-620 colon; SK-OV-3 ovarian.
Holding throughout (test): NCI tumour cell line growth inhibition, 48 h

As to `CN(CCc1ccccn1)/[N+]([O-])=N/O` (tested in a mixture with another compound), the TGI in the assay on CCRF-CEM leukemia, in the assay on HCT-116 colon, in the assay on HL-60(TB) leukemia, in the assay on HOP-62 NSCLC, with HT29 colon and in the assay on K-562 leukemia was over 100 µM throughout. Further, the TGI in the assay with SNB-75 CNS, in the assay with SR leukemia and in the assay with SW-620 colon was over 100 µM each time.
Consider `CC(C)c1ccc(C(c2c(O)c3ccccc3oc2=O)c2c(O)c3ccccc3oc2=O)cc1`, for which the TGI with CCRF-CEM leukemia was found to be 36.2 µM; in the assay with HCT-116 colon, 33.2 µM; in the assay with HL-60(TB) leukemia it was 26.3 µM; with HOP-62 NSCLC it was 50.5 µM; in the assay with HT29 colon it was 40.2 µM; in the assay with K-562 leukemia, 51.4 µM. The TGI in the assay with SK-OV-3 ovarian is 65.8 µM; in the assay with SNB-75 CNS it was 75.8 µM; in the assay on SR leukemia it was 31.1 µM; in the assay on SW-620 colon it was 34.2 µM.
For the compound `CCN(CC)CCNc1ccc(N=Nc2cnc3ccccc3c2)c2ccccc12`, the GI50 with CCRF-CEM leukemia was 0.223 µM; in the assay with HCT-116 colon, 1.51 µM; in the assay on HL-60(TB) leukemia, 1.34 µM; in the assay on HOP-62 NSCLC, 1.66 µM; in the assay on HT29 colon, 1.38 µM; in the assay on K-562 leukemia, 1.03 µM. The GI50 with SK-OV-3 ovarian was 1.72 µM; in the assay on SNB-75 CNS, 1.36 µM; with SR leukemia it was 0.59 µM; in the assay on SW-620 colon, 1.83 µM. Also, the TGI was found to be 1.09 µM in the assay on CCRF-CEM leukemia; 2.84 µM in the assay on HCT-116 colon; 2.92 µM with HL-60(TB) leukemia; 3.02 µM in the assay on HOP-62 NSCLC; 2.67 µM in the assay on HT29 colon; 2.3 µM with K-562 leukemia. The TGI in the assay with SK-OV-3 ovarian stood at 3.2 µM; in the assay with SNB-75 CNS, 2.89 µM; with SR leukemia, 2.08 µM; with SW-620 colon, 3.47 µM.
`CCCCCCCCCCCCSC1=CC(=O)C=CC1=O`: the GI50 in the assay with CCRF-CEM leukemia is 0.143 µM; in the assay with HCT-116 colon, 6.31 µM; in the assay with HL-60(TB) leukemia it was 0.353 µM; in the assay with HOP-62 NSCLC, 9.23 µM; with HT29 colon, 27.1 µM; with K-562 leukemia, 6.44 µM. In addition, the GI50 was 12.2 µM in the assay with SK-OV-3 ovarian, 1.14 µM in the assay with SNB-75 CNS, 3.58 µM in the assay with SR leukemia and 17.9 µM with SW-620 colon. Further, the TGI in the assay with CCRF-CEM leukemia was 4.17 µM; in the assay on HCT-116 colon it was over 43.3 µM; with HL-60(TB) leukemia, 2.43 µM; in the assay on HOP-62 NSCLC, over 35 µM; in the assay with HT29 colon, over 50 µM; in the assay with K-562 leukemia, over 36.9 µM. Further, the TGI in the assay with SK-OV-3 ovarian is over 33.4 µM; in the assay on SNB-75 CNS it was 6.38 µM; with SR leukemia, 29.1 µM; with SW-620 colon, over 50 µM.
As to `O=C(C(=O)c1cccnc1)c1cccnc1`, the GI50 with CCRF-CEM leukemia, with HCT-116 colon, in the assay on HL-60(TB) leukemia, in the assay on HOP-62 NSCLC, with HT29 colon and in the assay with K-562 leukemia was over 100 µM in each case. For the same compound, the GI50 in the assay with SK-OV-3 ovarian, with SNB-75 CNS, in the assay on SR leukemia and in the assay with SW-620 colon was over 100 µM each time. In addition, the TGI in the assay on CCRF-CEM leukemia, with HCT-116 colon, with HL-60(TB) leukemia, in the assay on HOP-62 NSCLC, with HT29 colon and with K-562 leukemia was over 100 µM in each case. Moreover, the TGI with SK-OV-3 ovarian, in the assay on SNB-75 CNS, with SR leukemia and in the assay with SW-620 colon was over 100 µM each time.
For the compound `CN1CCN(C(=O)[C@@]2(C)CC[C@]3(C)CC[C@]4(C)C(=CC[C@@H]5[C@@]6(C)CC[C@H](OC(=O)c7cccnc7)C(C)(C)[C@@H]6CC[C@]54C)[C@@H]3C2)CC1`, the GI50 in the assay on CCRF-CEM leukemia was 2.35 µM; in the assay with HCT-116 colon, 1.48 µM; in the assay on HL-60(TB) leukemia it was 1.44 µM; in the assay with HT29 colon, 1.06 µM; in the assay on K-562 leukemia, 2.15 µM; in the assay with SK-OV-3 ovarian it was 10.4 µM. Moreover, the GI50 in the assay with SNB-75 CNS is 1.32 µM; in the assay on SR leukemia, 0.937 µM; in the assay on SW-620 colon, 1.79 µM. Besides, the TGI in the assay on CCRF-CEM leukemia was 6.45 µM; in the assay on HCT-116 colon it was 2.87 µM; in the assay with HL-60(TB) leukemia, 3.36 µM; in the assay on HT29 colon, 2.69 µM; in the assay with K-562 leukemia, 6.36 µM; in the assay on SK-OV-3 ovarian, 22 µM. In addition, the TGI turned out to be 2.63 µM in the assay on SNB-75 CNS, 4.08 µM in the assay with SR leukemia and 3.59 µM with SW-620 colon.
As to `C=C1CCCC2OC(OC)CCC12` (configuration not stated), the TGI in the assay on CCRF-CEM leukemia, in the assay on HCT-116 colon, in the assay on HL-60(TB) leukemia, in the assay on HOP-62 NSCLC, in the assay on HT29 colon and with K-562 leukemia was over 100 µM in each case. For the same compound, the TGI in the assay with SK-OV-3 ovarian, in the assay with SNB-75 CNS, in the assay on SR leukemia and with SW-620 colon was over 100 µM in each case.
Turning to `O=c1[nH][nH]c(=O)c2c(O)c(-c3ccccc3)ncc12`, the GI50 with CCRF-CEM leukemia is 35.2 µM and 55.1 µM; with HCT-116 colon, 55 µM and 132 µM; in the assay on HL-60(TB) leukemia, 74.4 µM and 174 µM; with HOP-62 NSCLC, 27.9 µM and 86.9 µM; with HT29 colon it was 38.4 µM and 177 µM; with K-562 leukemia it was 219 µM. Also, the GI50 with SK-OV-3 ovarian was 27.8 µM and 120 µM; in the assay with SNB-75 CNS, 35.4 µM and 37.6 µM; with SR leukemia, 39.6 µM and 118 µM; in the assay on SW-620 colon it was 45.8 µM and 188 µM. Besides, the TGI is 894 µM with CCRF-CEM leukemia; 405 µM in the assay on HCT-116 colon; 553 µM with HL-60(TB) leukemia; 87.3 µM and 471 µM in the assay with HOP-62 NSCLC; 674 µM in the assay with HT29 colon; over 1000 µM in the assay on K-562 leukemia. Besides, the TGI is 93.3 µM and 488 µM in the assay on SK-OV-3 ovarian; 353 µM with SNB-75 CNS; 554 µM with SR leukemia; 891 µM in the assay with SW-620 colon.
`C#Cc1cccc(Nc2ncnc3ccc(-c4cnc(N)nc4)cc23)c1`: the GI50 is 2.6 µM with CCRF-CEM leukemia; 4.75 µM with HCT-116 colon; 2.59 µM in the assay on HL-60(TB) leukemia; 1.98 µM in the assay on HOP-62 NSCLC; 2.36 µM with HT29 colon; 3.42 µM in the assay with K-562 leukemia. The GI50 in the assay with SK-OV-3 ovarian was 1.53 µM; in the assay on SNB-75 CNS, 0.643 µM; with SR leukemia it was 2.58 µM; with SW-620 colon, 4.23 µM. The TGI in the assay on CCRF-CEM leukemia was over 100 µM; with HCT-116 colon, 17.3 µM; with HL-60(TB) leukemia, 11 µM; in the assay with HOP-62 NSCLC, 12.4 µM; in the assay on HT29 colon it was 14.6 µM; in the assay on K-562 leukemia, over 100 µM. The TGI in the assay on SK-OV-3 ovarian was 4.74 µM; in the assay on SNB-75 CNS it was 3.96 µM; in the assay on SR leukemia it was over 100 µM; in the assay with SW-620 colon, 17.7 µM.
